Drawing on ChEMBL document CHEMBL3085775, “Design, diversity-oriented synthesis and structure activity relationship studies of quinolinyl heterocycles as antimycobacterial agents” (Eur J Med Chem, 2013), this text covers IC50, MIC90 and MIC50 for 42 compounds.

The subject of one experiment is A549. The experiment can be described thus: Cytotoxicity against human A549 cells after 48 hrs by MTT assay. It counts as cell-based. The following applies: A549, 48 h. For orientation: Tetrazolium dyes change colour on reduction, which living cells bring about.
Experiment [1] relates to Mycolicibacterium smegmatis. Put plainly: Antimycobacterial activity against Mycobacterium smegmatis MC2 155 ATCC 14468 after 32 hrs by turbidimetry. The following applies: MC2 155 ATCC 14468, 32 h. The experiment is classed as functional.

Converted amounts (≈) assume the structure as drawn. Some results are limits rather than exact numbers.

Consider `CC(=O)N1N=C(c2cc3ccccc3nc2C)CC1c1ccc(Oc2nc(Cl)c(Cl)cc2Cl)cc1` (centres undefined), for which the IC50 (commonly the point on the concentration scale where inhibition reaches its midpoint) in the experiment with A549 is above 200 µg/mL. Besides, the MIC90 (commonly the lowest concentration that inhibits either 90% of growth or 90% of the strains tested, depending on the study) in experiment [1] is above 70 µg/mL.

Take `CC(=O)N1N=C(c2cc3c(Cl)cccc3nc2C)CC1c1ccc(C)cc1` (centres undefined): half-maximal inhibition with A549 (IC50) required 166 µg/mL. In addition, the MIC90 in experiment [1] is above 70 µg/mL.

Take `Cc1nc2ccccc2cc1-c1cc[nH]n1`: the IC50 in the experiment with A549 was 138 µM. In experiment [1], the MIC50 (in general, an inhibitory concentration at the 50% level, which refers to growth in some studies and to a panel of isolates in others) is 14.7 µg/mL (≈ 70.1 µM).

As for `Cc1nc2ccccc2cc1-c1nnc(-c2ccc(F)c(C(F)(F)F)c2)o1`, in the experiment on A549, the IC50 was 93.3 µg/mL. This compound also showed an MIC90 in experiment [1] of 47.5 µg/mL (≈ 127 µM).

In the experiment on A549, `CC(=O)N1N=C(c2cc3ccccc3nc2C)CC1c1ccc(N(C)C)cc1` (centres undefined) displayed an IC50 of 110 µg/mL. The MIC90 in experiment [1] was above 70 µg/mL.

`Cc1nc2ccccc2cc1-c1nnc(-c2cccc(Oc3ccccc3)c2)o1` gave an IC50 in the experiment with A549 of 146 µg/mL. In experiment [1], this compound came in with an MIC90 above 70 µg/mL.

Take `Cc1nc2ccccc2cc1C(=O)n1nc(C)c(C2CCCCO2)c1C` (centres undefined): it took 143 µg/mL to reach half-maximal inhibition with A549 (IC50). The MIC90 in experiment [1] was above 70 µg/mL.

Consider `CC(=O)N1N=C(c2cc3ccccc3nc2C)CC1c1ccc([N+](=O)[O-])cc1` (centres undefined), for which the IC50 with A549 is above 200 µg/mL. The MIC90 in experiment [1] was 50.7 µg/mL (≈ 135 µM).

As to `Cc1nc2ccccc2cc1-c1cn2ccccc2n1`, the IC50 in the experiment with A549 was determined as 118 µM. In experiment [1], this compound had an MIC50 above 50 µg/mL.

Regarding `Cc1nc2ccccc2cc1-c1nnc(-c2ccc(C(C)C)cc2)o1`, the IC50 in the experiment on A549 amounted to 103 µg/mL. The MIC90 in experiment [1] worked out at 41 µg/mL (≈ 125 µM).

In the experiment with A549, `COc1cc(C2CC(c3cc4ccccc4nc3C)=NN2C(C)=O)cc(OC)c1OC` (centres undefined) came in with an IC50 above 200 µg/mL. In experiment [1], the MIC90 came to 52.1 µg/mL (≈ 124 µM).

In the experiment with A549, `Cc1nc2ccccc2cc1C(=O)NN` displayed an IC50 of 96.4 µM. In addition, in experiment [1], the MIC50 was above 50 µg/mL.

For `CCCCCc1nnc(-c2cc3ccccc3nc2C)o1`, in the experiment on A549, the 50% inhibitory concentration (IC50) stood at 72.2 µg/mL. For the same compound, in experiment [1], the MIC90 was above 70 µg/mL.

Consider `COc1ccc(C2CC(c3cc4ccccc4nc3C)=NN2C(C)=O)cc1OC` (centres undefined), for which the IC50 with A549 was above 200 µg/mL. Further, the MIC90 in experiment [1] is above 70 µg/mL.

Turning to `Cc1nc2ccccc2cc1-c1nnc(C(C)c2ccccc2)o1` (centres undefined), the IC50 with A549 was found to be 165 µg/mL. The compound also returned an MIC90 in experiment [1] of 35.9 µg/mL (≈ 114 µM).

Turning to `Cc1nc2ccccc2cc1-c1nnc(CCc2ccccc2)o1`, the IC50 in the experiment with A549 stood at 145 µM. Further, the MIC50 in experiment [1] was found to be 35 µg/mL (≈ 111 µM).

For the compound `NNC(=O)c1ccncc1` [ISONIAZID], in experiment [1], the MIC50 amounted to 12.1 µg/mL (≈ 88 µM) and the MIC90 amounted to 11.8 µg/mL (≈ 85.9 µM).

In the experiment on A549, `COc1ccc(C2CC(c3cc4ccccc4nc3C)=NN2C(C)=O)cc1` (centres undefined) showed an IC50 of 116 µg/mL. The same compound gave an MIC90 in experiment [1] above 70 µg/mL.

As to `COc1cc(OC)c(C2CC(c3cc4ccccc4nc3C)=NN2C(C)=O)c(OC)c1` (centres undefined), the IC50 in the experiment with A549 worked out at 171 µM. In addition, the MIC50 in experiment [1] turned out to be 57.9 µg/mL (≈ 138 µM).

`Cc1nc2ccccc2cc1C1=NN(c2ccccc2)C(c2ccc(Br)cc2)C1` (centres undefined) registered an IC50 in the experiment with A549 of 93 µg/mL. The same compound came in with an MIC90 in experiment [1] above 70 µg/mL.

In turn, `Cc1nc2ccccc2cc1-c1ccnc(N)n1` showed an IC50 in the experiment with A549 of 94.2 µM. In experiment [1], the MIC50 was above 50 µg/mL.

Regarding `CC(=O)n1ccc(-c2cc3ccccc3nc2C)n1`, the IC50 in the experiment with A549 turned out to be 87 µg/mL. Moreover, the MIC90 in experiment [1] was found to be 17.3 µg/mL (≈ 69 µM).

The compound `Cc1nc2ccccc2cc1-c1nnc(-c2ccccc2C(=O)O)o1` showed an IC50 in the experiment on A549 of 106 µg/mL. The MIC90 in experiment [1] turned out to be 43.3 µg/mL (≈ 131 µM).

The compound `Cc1cc(C)n(C(=O)c2cc3ccccc3nc2C)n1` gave a half-inhibitory concentration (IC50) with A549 of 97.9 µg/mL. Further, the MIC90 in experiment [1] worked out at 24.1 µg/mL (≈ 90.9 µM).

With `COc1ccc(C2CC(c3cc4ccccc4nc3C)=NN2C(C)=O)c(OC)c1OC` (centres undefined), half-maximal inhibition in the experiment on A549 (IC50) was put at 86.5 µg/mL. In experiment [1], this compound showed an MIC90 of 46.2 µg/mL (≈ 110 µM).

Regarding `CCOc1c(F)c(F)c(C2CC(c3cc4ccccc4nc3C)=NN2C(C)=O)c(F)c1F` (centres undefined), the midpoint of inhibition in the experiment on A549, the IC50, lay at 115 µg/mL. In experiment [1], the MIC90 is above 70 µg/mL.

The compound `COc1cc(C2CC(c3cc4ccccc4nc3C)=NN2c2ccccc2)cc(OC)c1OC` (centres undefined) yielded an IC50 with A549 above 200 µg/mL. Further, the MIC90 in experiment [1] was above 70 µg/mL.

The compound `CC(=O)N1N=C(c2cc3ccccc3nc2C)CC1/C=C/c1ccccc1` (centres undefined) came in with an IC50 with A549 of 93.3 µg/mL. The compound further returned an MIC90 in experiment [1] above 70 µg/mL.

`COc1ccc(OC)c(C2CC(c3cc4ccccc4nc3C)=NN2C(C)=O)c1` (centres undefined): the IC50 in the experiment with A549 amounted to 111 µg/mL. The same compound gave an MIC90 in experiment [1] above 70 µg/mL.

In the experiment with A549, `Cc1nc2ccccc2cc1-c1nnc(-c2cn(-c3ccccc3)nc2-c2ccccc2)o1` came in with an IC50 above 200 µg/mL. This compound also returned an MIC90 in experiment [1] above 70 µg/mL.

For the compound `Cc1nc2ccccc2cc1-c1nnc(-c2cccnc2)o1`, half-maximal inhibition in the experiment on A549 (IC50) required 139 µg/mL. In experiment [1], this compound registered an MIC90 of 22.7 µg/mL (≈ 78.8 µM).

In experiment [1], `CO[C@H]1/C=C/O[C@@]2(C)Oc3c(C)c(O)c4c(O)c(c(/C=N/N5CCN(C)CC5)c(O)c4c3C2=O)NC(=O)/C(C)=C\C=C\[C@H](C)[C@H](O)[C@@H](C)[C@@H](O)[C@@H](C)[C@H](OC(C)=O)[C@@H]1C` [RIFAMPIN] showed an MIC50 of 2.08 µg/mL (≈ 2.53 µM) and an MIC90 of 2.15 µg/mL (≈ 2.61 µM).

Compound `Cc1nc2ccccc2cc1-c1nnc(-c2ccc(OC(F)(F)F)cc2)o1` gave an IC50 with A549 of 91.1 µg/mL. Besides, the MIC90 in experiment [1] is above 70 µg/mL.

Compound `COc1ccc(C2CC(c3cc4ccccc4nc3C)=NN2c2ccccc2)c(OC)c1OC` (centres undefined) registered an IC50 in the experiment on A549 of 143 µg/mL. The compound further came in with an MIC90 in experiment [1] of 43.5 µg/mL (≈ 96 µM).

In the case of `COc1ccc(OC)c(-c2nnc(-c3cc4ccccc4nc3C)o2)c1`, in the experiment on A549, the IC50 turned out to be 134 µg/mL. In experiment [1], this compound showed an MIC90 of 29.2 µg/mL (≈ 84 µM).

In turn, `Cc1nc2ccccc2cc1-c1csc(N)n1` displayed a 50% inhibitory concentration (IC50) with A549 above 200 µM. Moreover, the MIC50 in experiment [1] is above 50 µg/mL.

With `Cc1nc2ccccc2cc1-c1nnc(-c2coc3ccccc3c2=O)o1`, the IC50 in the experiment on A549 turned out to be 111 µg/mL. The MIC90 in experiment [1] worked out at 16.8 µg/mL (≈ 47.4 µM).

In the experiment with A549, `CC(=O)N1N=C(c2cc3ccccc3nc2C)CC1c1ccc(C#N)cc1` (centres undefined) registered an IC50 above 200 µg/mL. In experiment [1], this compound yielded an MIC90 above 70 µg/mL.

As for `CC(=O)N1N=C(c2cc3ccccc3nc2C)CC1c1cccc(Oc2nc(Cl)c(Cl)cc2Cl)c1` (centres undefined), the IC50 in the experiment with A549 came to 72.7 µg/mL. Besides, in experiment [1], the MIC90 was 64.9 µg/mL (≈ 123 µM).

In the case of `Cc1ccc(-c2nnc(-c3cc4ccccc4nc3C)o2)cc1`, in the experiment on A549, the IC50 amounted to 175 µg/mL. This compound also came in with an MIC90 in experiment [1] of 35 µg/mL (≈ 116 µM).

Regarding `Cc1nc2ccccc2cc1-c1nnc(-c2cccs2)o1`, in the experiment on A549, inhibition was half-maximal at 99.4 µg/mL (IC50). In experiment [1], this compound came in with an MIC90 of 39.7 µg/mL (≈ 135 µM).

The compound `COc1cc(-c2nnc(-c3cc4ccccc4nc3C)o2)cc(OC)c1OC` displayed an IC50 in the experiment on A549 of 113 µg/mL. Besides, the MIC90 in experiment [1] is 61.9 µg/mL (≈ 164 µM).
